The values that follow come from the OligoGym collection.

Values joined by “and” are separate entries in the source; they are usually repeats but may differ in a detail not shown here. Equal values may be shown once. After the bases stand the sugars from the 5' end (letter, count) and the backbone: PS all phosphorothioate, else s phosphorothioate and o phosphodiester by linkage. Methylation of C is not given here. [mop] = methoxypropylphosphonate linkage; e = 2'-O-(2-methoxyethyl) (MOE); k = constrained ethyl (cEt); d = 2'-deoxy (DNA)

The target in this data set is IRF5. Particulars: ASO.

Consider “TGTCTAGTGTCATGGA (sugars k2 d9 e3 k2, linkages s3 [mop]1 s11)”, for which the target mRNA inhibition by setting is: (A-431, 0.00412 µM) 0%; (A-431, 0.01225 µM) 15%; (A-431, 0.03704 µM) 10%; (A-431, 0.11111 µM) 39%; (A-431, 0.33333 µM) 58%; (A-431, 1 µM) 75%.

“CCAATTTTGCATTCCA (sugars kkddddddddddkeke, PS)”: the target mRNA inhibition is 47% (KARPAS-229, 0.44444 µM); 66% (KARPAS-229, 1.33333 µM); 75% and 57% (KARPAS-229, 4 µM); 82% (KARPAS-229, 12 µM).

As for “CAGGTTCTTGGACTCT (sugars kddddddddddkekek, PS)”, the target mRNA inhibition (KARPAS-229, 4 µM) came to 0%. As to “TTATCTCCGTCCTGGC (sugars kkdddddddddkekek, PS)”, the target mRNA inhibition (KARPAS-229, 4 µM) worked out at 0%.

In turn, “GATGGTGTTATCTCCG (sugars kkdddddddddkdkdk, PS)” displayed a target mRNA inhibition (KARPAS-229, 4 µM) of 0%. The sequence AATAGGAGTGAGACGA (sugars k3 d10 k3, PS) registered a target mRNA inhibition (KARPAS-229, 4 µM) of 25%. “AGGTTCTTGGACTCTC (sugars kkddddddddkekekk, PS)” yielded a target mRNA inhibition (KARPAS-229, 4 µM) of 0%. Under “KARPAS-229, 4 µM”, “ATCACCACTGTGTACC (sugars kkddddddddddkeke, PS)” yielded a target mRNA inhibition of 0%. The same measure, in the same setting: as for “GGAGTGAGACGAGCAA (sugars kkdddddddddkdkdk, PS)”, the figure is 16%; as for “TGAGTCATGGGCTGAG (sugars kkkddddddddkdkdk, PS)”, 3%. “TGAGTCATGGGCTGAG (sugars k3 d9 k3 e1, PS)” displayed a target mRNA inhibition (KARPAS-229, 4 µM) of 11%. In turn, CATCAGCTTTCTTGTC (sugars k3 d10 k3, PS) displayed a target mRNA inhibition (KARPAS-229, 4 µM) of 28%. Under “KARPAS-229, 4 µM”, “ATGAGTCATGGGCTGA (sugars kkkddddddddkdkdk, PS)” returned a target mRNA inhibition of 0%.

Sequence “GGTGTATTTCCCTGTC (sugars kkkddddddddkekek, PS)” had a target mRNA inhibition (KARPAS-229, 4 µM) of 0%. As for “GGTGTATTTCCCTGTC (sugars kkdddddddddkekek, PS)”, the target mRNA inhibition (KARPAS-229, 4 µM) turned out to be 26%.

As to “GGAGTGAGACGAGCAA (sugars kkddddddddddkeke, PS)”, the target mRNA inhibition (KARPAS-229, 4 µM) was found to be 33%.

Take “CACTGACACAGGCGGA (sugars kkkddddddddkdkdk, PS)”: the target mRNA inhibition (KARPAS-229, 4 µM) turned out to be 0%. In the case of “GTCTGGCCCTTTTGGA (sugars kkdddddddddkdkdk, PS)”, for the setting “KARPAS-229, 4 µM”, the target mRNA inhibition was determined as 0%. In turn, AGTGAGTCTCAAACCA (sugars k3 d10 k3, PS) displayed a target mRNA inhibition (KARPAS-229, 4 µM) of 0%.

For “GAGTCATGGGCTGAGG (sugars kdddddddddkekeke, PS)”, the target mRNA inhibition (KARPAS-229, 4 µM) is 0%. Sequence “CATCTCCACATCAGTC (sugars kddddddddddkekek, PS)” gave a target mRNA inhibition (KARPAS-229, 4 µM) of 25%.

“CCCAATGCAACATCCA (sugars kkddddddddkekekk, PS)” yielded a target mRNA inhibition (KARPAS-229, 4 µM) of 0%. Still for that read-out and setting: as for “AGATGGTGTTATCTCC (sugars k3 d9 k3 e1, PS)”, the figure is 0%. For the setting “KARPAS-229, 4 µM”, GGACGAGTTATGGGAA (sugars k3 d10 k3, PS) gave a target mRNA inhibition of 37%. Consider ATGAGTCATGGGCTGA (sugars k3 d10 k3, PS), for which, for the setting “KARPAS-229, 4 µM”, the target mRNA inhibition was 21%. Turning to “TTCTTGGACTCTCAAG (sugars kdddddddddkekeke, PS)”, the target mRNA inhibition (KARPAS-229, 4 µM) was determined as 0%. Sequence TCATGAGTAATAGGAG (sugars k3 d10 k3, PS) had a target mRNA inhibition (KARPAS-229, 4 µM) of 11%. For “CCAATGCAACATCCAT (sugars kkddddddddddkeke, PS)”, the target mRNA inhibition (KARPAS-229, 4 µM) stood at 0%. For the setting “KARPAS-229, 4 µM”, “GTGTATTTCCCTGTCT (sugars kkddddddddddkeke, PS)” came in with a target mRNA inhibition of 0%.

“GCTGTCACATCTCCAC (sugars kkddddddddkekekk, PS)” displayed a target mRNA inhibition (KARPAS-229, 4 µM) of 29%. Take “GGAAGTGAGTCTCAAA (sugars k3 d9 k3 e1, PS)”: the target mRNA inhibition reads like this: (KARPAS-229, 0.44444 µM) 21%; (KARPAS-229, 1.33333 µM) 13%; (KARPAS-229, 4 µM) 49% and 71%; (KARPAS-229, 12 µM) 76%. In the case of “TCTTGACCTCCCGCTG (sugars kdddddddddkekeke, PS)”, the target mRNA inhibition (KARPAS-229, 4 µM) turned out to be 40%.
